Speed of sound and mass density data for four molecules are collected here from the NIST ThermoML archive (doi:10.1016/j.tca.2013.08.002).

± gives the expanded uncertainty stated by the source.

A short description of data set [1]: mn = molality of the nth substance listed, in mol/kg. Particulars: 101 kPa, Liquid; for speed of sound: Frequency=1.999 MHz, Sing-around technique in a fixed-path interferometer; for mass density: Vibrating tube method.
The conditions of data set [2]: 101 kPa, Liquid, Frequency=1.999 MHz, Sing-around technique in a fixed-path interferometer.

As for `[Cl-].[Cl-].[Mg+2]` [magnesium chloride] + O, the speed of sound in data set [1] (288.15 K, m1 = 0.3) came to 1510.3 ± 10 m/s; in data set [1] (293.15 K, m1 = 0.3), 1518.6 ± 10 m/s; in data set [1] (298.15 K, m1 = 0.3), 1529.1 ± 10 m/s; in data set [1] (303.15 K, m1 = 0.3), 1540 ± 10 m/s; in data set [1] (308.15 K, m1 = 0.3), 1551.9 ± 10 m/s; in data set [1] (313.15 K, m1 = 0.3), 1563 ± 10 m/s. For the same molecule, the speed of sound in data set [1] (318.15 K, m1 = 0.3) is given as 1573.4 ± 10 m/s. In addition, the mass density is 1024.7 ± 2 kg/m3 in data set [1] (288.15 K, m1 = 0.3); 1022.7 ± 2 kg/m3 in data set [1] (293.15 K, m1 = 0.3); 1019.2 ± 2 kg/m3 in data set [1] (303.15 K, m1 = 0.3); 1014.9 ± 2 kg/m3 in data set [1] (313.15 K, m1 = 0.3); 1012.6 ± 2 kg/m3 in data set [1] (318.15 K, m1 = 0.3).
On to `[Cl-].[K+]` [potassium chloride] + O, for which the speed of sound in data set [1] (288.15 K, m1 = 0.3) amounted to 1482.9 ± 10 m/s; in data set [1] (293.15 K, m1 = 0.3), 1500.8 ± 10 m/s; in data set [1] (298.15 K, m1 = 0.3), 1518.4 ± 10 m/s; in data set [1] (303.15 K, m1 = 0.3) it was 1537.8 ± 10 m/s; in data set [1] (308.15 K, m1 = 0.3) it was 1548.6 ± 10 m/s; in data set [1] (313.15 K, m1 = 0.3) it was 1558.8 ± 10 m/s. Besides, in data set [1] (318.15 K, m1 = 0.3), the speed of sound is recorded as 1568 ± 10 m/s. In addition, the mass density in data set [1] (288.15 K, m1 = 0.3) was 1019.9 ± 2 kg/m3; in data set [1] (293.15 K, m1 = 0.3) it was 1018.1 ± 2 kg/m3; in data set [1] (298.15 K, m1 = 0.3), 1016.9 ± 2 kg/m3; in data set [1] (303.15 K, m1 = 0.3), 1013.5 ± 2 kg/m3; in data set [1] (308.15 K, m1 = 0.3), 1008.5 ± 2 kg/m3; in data set [1] (313.15 K, m1 = 0.3) it was 1006.1 ± 2 kg/m3. Moreover, the mass density in data set [1] (318.15 K, m1 = 0.3) is listed as 1003.4 ± 2 kg/m3.
`O` [water]: the speed of sound in data set [2] (298.15 K) is given as 1496.5 ± 10 m/s; in data set [2] (308.15 K), 1519.4 ± 10 m/s; in data set [2] (313.15 K), 1528.9 ± 10 m/s.
Take `O` [water] + C[N+](C)(C)CC(=O)[O-]: the speed of sound in data set [1] (298.15 K, m2 = 0) is listed as 1496.5 ± 10 m/s; in data set [1] (308.15 K, m2 = 0), 1519.4 ± 10 m/s; in data set [1] (313.15 K, m2 = 0) it was 1528.9 ± 10 m/s.
